Measurements reported in PubChem BioAssay (NCI).
Several values for one entry are separate records, joined by “and”; a condition that tells them apart may be missing. Equal entries are not always repeated.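 Cells were grown in 96-well plates and exposed to each compound for 48 hours at five concentrations; endpoints were interpolated linearly between bracketing concentrations, or set to the highest concentration if not reached. Abbreviation: GI50, concentration required for 50% inhibition of growth. The concentration for full growth arrest is given as TGI.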

Assays:
Assay in all cases: growth of human tumour cells (NCI), 48 h
MDA-MB-231 breast = test system: MDA-MB-231 breast
786-0 renal = test system: 786-0 renal
NCI-H522 lung = test system: NCI-H522 lung
PC-3 prostate = test system: PC-3 prostate
SN12C renal = test system: SN12C renal
COLO 205 colon = test system: COLO 205 colon
SW-620 colon = test system: SW-620 colon
NCI-H23 lung = test system: NCI-H23 lung
HOP-62 NSCLC = test system: HOP-62 NSCLC
BT-549 breast = test system: BT-549 breast

SMILES	TGI (MDA-MB-231 breast)	TGI (786-0 renal)	TGI (NCI-H522 lung)	TGI (PC-3 prostate)	TGI (SN12C renal)	TGI (COLO 205 colon)	TGI (SW-620 colon)	TGI (NCI-H23 lung)	TGI (HOP-62 NSCLC)	TGI (BT-549 breast)	GI50 (MDA-MB-231 breast) [µM]	GI50 (786-0 renal)	GI50 (NCI-H522 lung) [µM]	GI50 (PC-3 prostate)	GI50 (SN12C renal) [µM]	GI50 (COLO 205 colon)	GI50 (SW-620 colon)	GI50 (NCI-H23 lung)	GI50 (HOP-62 NSCLC)	GI50 (BT-549 breast)
COc1ccc(Cl)cc1NC(=O)c1cccc([N+](=O)[O-])c1O	> 100 µM	58.7 µM	38.6 µM	> 100 µM	> 75.3 µM	32 µM	> 100 µM	40.7 µM	21.4 µM	27.4 µM										
Cc1cc(C)n(C(=O)c2nn(-c3ccc(Cl)cc3)cc2O)n1	> 100 µM	> 100 µM	50.7 µM	> 100 µM	> 100 µM	48.1 µM	> 100 µM	> 100 µM	79.4 µM	26.3 µM	8.8	9.64 µM	7.37	7.05 µM	3.37	18.5 µM	8.02 µM	3.31 µM	5.21 µM	2.19 µM
NC(Cc1ccnnc1)C(=O)O (centres undefined)	> 100 µM	> 100 µM	> 100 µM	> 100 µM	> 100 µM	> 100 µM	> 100 µM	> 100 µM	> 100 µM	> 100 µM										
C=CCC(N[C@H](CO)c1ccccc1)c1cn(S(=O)(=O)c2ccc(C)cc2)c2ccccc12 (some centres undefined)	32.3 µM	> 100 µM	47.7 µM	77.1 µM	32.2 µM	> 100 µM	85.9 µM	43.5 µM	33.5 µM	46.5 µM	10.7	> 100 µM	18.6	17.8 µM	16.9	35.3 µM	31.8 µM	20.3 µM	16.8 µM	20.5 µM
C#Cc1cccc(Oc2ccc(NC(=O)CCl)cc2)c1	> 82.5 µM	> 82.5 µM	> 82.5 µM	> 82.5 µM	> 82.5 µM	73.3 µM	> 82.5 µM	> 82.5 µM	> 82.5 µM	> 82.5 µM	> 82.5	> 82.5 µM	33.5	> 82.5 µM	> 82.5	21.2 µM	24.8 µM	48.1 µM	> 82.5 µM	37.2 µM
CCCCCCCCCCCCCC(=O)C(C)N (centres undefined)	6.06 µM	26.2 µM	27.5 µM	6.05 µM	13.3 µM	3.87 µM	27.2 µM	21.9 µM	16.9 µM	31.1 µM	2.37	12.4 µM	12.7	2.64 µM	3.71	1.95 µM	11.6 µM	6.94 µM	4.76 µM	15.4 µM
O=C1C(=O)c2ccccc2C(O)=C1CC=C(Cl)Cl	> 52.8 µM and 119 µM and 56.2 µM	> 68.9 µM and 250 µM and > 100 µM	40.5 µM and 117 µM and 89.8 µM	> 48.8 µM and 134 µM and 72.9 µM	> 86.9 µM and 137 µM and > 100 µM	28.8 µM and > 85.5 µM and > 100 µM	> 80.5 µM and 231 µM and > 100 µM	51.3 µM and 154 µM and 99.1 µM	64.1 µM and 61 µM and > 100 µM	94.6 µM and 139 µM and > 100 µM	3.59	4.63 µM and 13.4 µM	8.02	4.7 µM and 2.85 µM	5.92	11.4 µM and 11.2 µM	6.98 µM and 4.68 µM	11.6 µM and 12.7 µM	9.44 µM and 14 µM	16.3 µM and 27.1 µM
O=S(=O)(NCCNc1cc(-c2cn(-c3ccccc3)nc2-c2cccc(O)c2)ccn1)c1ccc(Cl)cc1	5.56 µM	9.78 µM	5.79 µM	12 µM	14 µM	4 µM	18.9 µM	13.4 µM	13.7 µM	7.65 µM	2.14	2.54 µM	2.16	2.45 µM	3.47	1.87 µM	3.69 µM	3.07 µM	2.87 µM	2.06 µM
CS(=O)(=O)CCn1c(=O)c(Oc2ccc(F)cc2F)cc2cnc(NC3CCOCC3)nc21	> 25 µM	> 25 µM	> 25 µM	> 25 µM	> 25 µM	> 25 µM	> 25 µM	> 25 µM	> 25 µM	> 25 µM	> 25	> 25 µM	> 25	> 25 µM	> 25	> 25 µM	> 25 µM	> 25 µM	> 25 µM	> 25 µM
CC(=O)c1cc2c(c3ccsc13)-c1ccccc1CC2	67.1 µM	> 100 µM	79.1 µM	> 100 µM	> 100 µM	> 100 µM	> 100 µM	95.6 µM	> 100 µM	> 100 µM	16.4	35.2 µM	19.7	27.9 µM	34.7	42 µM	33.7 µM	28.1 µM	36.4 µM	37 µM
Nc1ccc2ccc(NS(=O)(=O)N3CCCCC3)cc2c1	> 33.7 µM	> 100 µM	0.76 µM	> 100 µM	> 100 µM	1.65 µM	> 100 µM	> 63.8 µM	> 100 µM	> 84.3 µM	0.728	5.32 µM	0.205	1.28 µM	0.653	0.369 µM	0.336 µM	1.53 µM		0.69 µM
CCN(CC)CCOc1ccc2c(c1)C(=O)c1cc(OCCN(CC)CC)ccc1-2	33.8 µM	21.8 µM	27.5 µM	26.2 µM	45.1 µM	9.38 µM	20.6 µM	27.5 µM	28 µM	46.5 µM	10.4	7.17 µM	12.4	5.64 µM	12.6	2.56 µM	4.04 µM	11.9 µM	8.12 µM	20.4 µM
CCOC(=O)N[C@H]1CCc2c(Br)c(OC)c(OC)c(OC)c2-c2ccc(SC)c(=O)cc21	5.17 µM	25.1 µM	10.1 µM	> 44.5 µM	19.8 µM	0.0161 µM	16.7 µM	24 µM	41.2 µM	8.97 µM	< 0.01	0.0318 µM	< 0.01	< 0.01 µM	< 0.0178	< 0.01 µM	< 0.01 µM	< 0.01 µM	0.0232 µM	0.0115 µM
